Tests used:
recombinant human FAK1 = target: T1, recombinant human FAK1 (Homo sapiens, UniProt Q05397); experiment: FAK1 HTRF assay; format: biochemical
T1 construct: fused on or other part: N-terminal 6xHis tag
In short: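 IC50 values derive from HTRF % inhibition (ratio 665/620 nm, Eu–anti-phosphotyrosine 0.1 nM, SA-APC 12 nM). The kinase step ran 45 min at room temperature, pairing 10 nM His-FAK1(692–end) from baculovirus with 0.5 μM gastrin Tyr87 biotin-peptide and a reagent at 10 μM final, pH 7.4. Compound dilutions began at 10 μM.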

Recombinant Src enzyme = target: T2, Recombinant Src enzyme (Homo sapiens, UniProt P12931); experiment: Src HTRF assay; format: biochemical
T2 construct: purchased Millipore 14-326; host or cells: Sf21 insect cells
Method: Enzyme assay buffer, supplements, and compounds were prepared as described in the FAK HTRF assay.
Recombinant Src enzyme expressed in Sf21 insect cells was obtained (Millipore, Cat No. 14-326, Lot # D8CN006U-K). A 35 μM stock was used at a final concentration of 5 nM in the assay.
Tyk2 synthetic peptide-Biotinylated-N-terminal tag-[…]
A custom made substrate, a Tyk2 synthetic peptide, biotinylated with an N-terminal tag was obtained (Biopeptide and Sigma, Cat. No. 14918001 VC80021). A 100 μM stock was used at a final concentration of 0.5 μM in the assay.
A 10 mM stock in 100 μL enzyme assay buffer pH7.4 was prepared freshly and used at a final concentration of 10 μM in the assay.
Dasatinib (Bristol-Myers Squibb)
The assay procedure was the same as discussed above.

T2 sequence (P12931 whole entry): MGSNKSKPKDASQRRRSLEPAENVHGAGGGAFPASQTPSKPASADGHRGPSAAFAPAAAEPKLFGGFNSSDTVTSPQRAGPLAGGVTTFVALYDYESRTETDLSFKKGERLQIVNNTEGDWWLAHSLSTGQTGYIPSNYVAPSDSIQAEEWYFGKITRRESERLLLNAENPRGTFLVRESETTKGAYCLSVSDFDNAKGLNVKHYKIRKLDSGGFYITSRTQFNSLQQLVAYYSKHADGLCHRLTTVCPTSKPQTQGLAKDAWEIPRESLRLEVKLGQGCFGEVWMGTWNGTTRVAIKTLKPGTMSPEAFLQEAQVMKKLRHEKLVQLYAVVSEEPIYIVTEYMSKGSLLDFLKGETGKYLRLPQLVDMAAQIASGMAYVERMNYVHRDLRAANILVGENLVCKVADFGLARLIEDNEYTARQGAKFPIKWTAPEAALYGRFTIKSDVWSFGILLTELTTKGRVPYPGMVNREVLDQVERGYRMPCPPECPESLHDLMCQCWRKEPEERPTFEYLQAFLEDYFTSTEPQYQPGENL
T1 sequence (Q05397 422-680 limits assumed): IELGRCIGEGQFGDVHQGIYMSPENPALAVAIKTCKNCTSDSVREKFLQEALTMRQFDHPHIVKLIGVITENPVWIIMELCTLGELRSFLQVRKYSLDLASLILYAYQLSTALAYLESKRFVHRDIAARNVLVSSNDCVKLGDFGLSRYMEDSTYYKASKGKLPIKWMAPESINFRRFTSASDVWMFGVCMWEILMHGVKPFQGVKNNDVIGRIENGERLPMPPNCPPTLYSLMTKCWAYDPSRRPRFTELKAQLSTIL

| IC50 (recombinant human FAK1) [µM] | IC50 (Recombinant Src enzyme) [µM] | SMILES |
| --- | --- | --- |
| > 1 | > 1 | O=C1CCc2cc(Nc3ncc4ccn(S(=O)(=O)c5cccc(OC(F)(F)F)c5)c4n3)ccc2N1 [Example 45] |
| > 1 | > 1 | COc1ccccc1S(=O)(=O)n1ccc2cnc(Nc3cncnc3)nc21 [Example 146] |
| > 1 | > 1 | CC(=O)Nc1ccc(S(=O)(=O)n2ccc3cnc(Nc4ccc(CC#N)cc4)nc32)cc1 [Example 183] |
| > 1 | > 1 | CN(c1ncccc1Cn1cc2cnc(Nc3ccc4c(c3)CCC(=O)N4)nc2n1)S(C)(=O)=O [Example 190] |
| < 0.02 | < 0.02 | CN(c1ncccc1Cn1ccc2cnc(Nc3ccc4c(c3)NC(=O)CC4)nc21)S(C)(=O)=O [Example 209] |
| < 0.02 | < 0.02 | O=C1CCc2cc(Nc3ncc4ccn(S(=O)(=O)c5cccc6ccccc56)c4n3)ccc2N1 [Example 223] |
| > 1 | > 1 | CN(c1ncccc1Cn1ccc2cnc(Nc3ncccn3)nc21)S(C)(=O)=O [Example 227] |
| < 0.02 | < 0.02 | O=C1CCc2cc(Nc3ncc4cnn(S(=O)(=O)c5cccc6cccnc56)c4n3)ccc2N1 [Example 228] |
| < 0.02 | > 1 | N#Cc1ccccc1Nc1ncc2ccn(S(=O)(=O)c3cccc4cccnc34)c2n1 [Example 359] |
| < 0.02 | > 1 | COc1cc(N2CCNCC2)ccc1Nc1ncc2ccn(S(=O)(=O)c3cc(C)cc4cccnc34)c2n1 [Example 360] |
|  | > 1 | O=S(=O)(c1cccc2cccnc12)n1ccc2cnc(Nc3ccc(N4CCNCC4)cc3CO)cc21 [Example 361] |
| > 1 | > 1 | O=S(=O)(c1cccc2cccnc12)n1ccc2cnc(Nc3ccc(N4CCNCC4)cc3OC3CCC3)cc21 [Example 362] |
|  | > 1 | O=S(=O)(c1cccc2cccnc12)n1ccc2cnc(Nc3ccc(N4CCNCC4)cc3CO)nc21 [Example 363] |
|  | > 1 | COc1cc(Nc2cc3c(ccn3Cc3cccnc3N(C)S(C)(=O)=O)cn2)ccc1N1CCNCC1 [Example 364] |
|  | > 1 | COc1c(Nc2ncc3ccn(S(=O)(=O)c4cccc5cccnc45)c3n2)ccc(N2CCNCC2)c1F [Example 370] |
| < 0.02 | > 1 | Cc1cc(Nc2cc3c(cn2)cnn3S(=O)(=O)c2cccc3cccnc23)ccc1N1CCOCC1 [Example 374] |
|  | > 1 | O=C(Nc1ccc(Nc2cc3c(cn2)cnn3S(=O)(=O)c2cccc3cccnc23)cc1)C1CC1 [Example 375] |
|  | > 1 | COc1cc(N2CCNCC2)ccc1Nc1cc2c(ccn2S(=O)(=O)c2cccc3ccc(C)nc23)cn1 [Example 382] |
|  | > 1 | CN(c1ncccc1Cn1ccc2cnc(Nc3ccc(N4CCC(O)CC4)cc3)cc21)S(C)(=O)=O [Example 384] |
| < 0.02 | > 1 | CN(c1ccccc1Cn1ccc2cnc(Nc3ccc(N4CCOCC4)cc3)cc21)S(C)(=O)=O [Example 385] |
|  | > 1 | CN(c1ncccc1Cn1ccc2cnc(Nc3ccc(N4CCN(CCO)CC4)cc3)cc21)S(C)(=O)=O [Example 393] |
| < 0.02 | > 1 | COc1cc(N2CCC(O)CC2)ccc1Nc1cc2c(cn1)cnn2S(=O)(=O)c1cccc2cccnc12 [Example 396] |
|  | > 1 | Cc1ccnc2c(S(=O)(=O)n3ccc4cnc(Nc5ccc(N6CCC(O)CC6)cc5)nc43)cccc12 [Example 402] |
|  | > 1 | CN(c1ncccc1CN1CCc2cnc(Nc3ccc(N4CCNCC4)cc3)nc21)S(C)(=O)=O [Example 433] |
|  | > 1 | C[C@H]1CNCCN1c1ccc(Nc2cc3c(ccn3S(=O)(=O)c3ccccc3C#N)cn2)cc1 [Example 477] |

| IC50 (recombinant human FAK1) [µM] | IC50 (Recombinant Src enzyme) [µM] | SMILES |
| --- | --- | --- |
|  | > 1 | COc1cc(C(=O)N2CCOCC2)ccc1Nc1ncc2ccn(Cc3ccccc3N(C)S(C)(=O)=O)c2n1 [Example 503] |
|  | > 1 | CC1(C)CN(S(=O)(=O)c2cccc3cccnc23)c2nc(Nc3ccc4c(c3)CC(=O)N4)ncc21 [Example 511] |
|  | > 1 | C[C@H]1CN(c2ccc(Nc3ncc4ccn(Cc5ccccc5N(C)S(C)(=O)=O)c4n3)nc2)CCN1 [Example 565] |
|  | > 1 | CN(C)C1CN(c2ccc(Nc3ncc4c(n3)N(S(=O)(=O)c3cccc5cccnc35)CC4(C)C)cc2)C1 [Example 603] |
|  | > 1 | C[C@H]1CN(c2ccc(Nc3cc4c(ccn4Cc4cccnc4N(C)S(C)(=O)=O)cn3)cc2)CCN1 [Example 616] |
|  | > 1 | CC1(C)CN(S(=O)(=O)c2cccc3cccnc23)c2nc(Nc3ccc(N4CCC(CO)CC4)cc3)ncc21 [Example 625] |
|  | > 1 | COc1cc(Nc2ncc3c(n2)N(S(=O)(=O)c2cccc4cccnc24)CC3(C)C)ccc1N1CCN[C@@H](C)C1 [Example 627] |
|  | > 1 | COc1ccc(Cn2ccc3cnc(Nc4ccc(N5CCN[C@H](C)C5)cc4)nc32)c(N(C)S(C)(=O)=O)c1 [Example 671] |
|  | > 1 | CC1(C)CN(S(=O)(=O)c2cccc3cccnc23)c2nc(Nc3ccc(NC4CCNCC4)cc3)ncc21 [Example 673] |
|  | > 1 | C[C@H]1CN(c2ccc(Nc3ncc4ccn(Cc5ccc(C#N)cc5N(C)S(C)(=O)=O)c4n3)cc2)CCN1 [Example 685] |
|  | > 1 | CN(C)C1CCN(c2ccc(Nc3ncc4ccn(Cc5ccc(C#N)cc5N(C)S(C)(=O)=O)c4n3)cc2)CC1 [Example 689] |
|  | > 1 | COc1ccc(Cn2ccc3cnc(Nc4ccc(N5CCN[C@@H](C)C5)cc4)nc32)c(N(C)S(C)(=O)=O)c1 [Example 714] |
|  | > 1 | Cc1cn(Cc2cccnc2N(C)S(C)(=O)=O)c2nc(Nc3ccc(N4CCNCC4)cc3)ncc12 [Example 719] |
|  | > 1 | CN(c1ncccc1Cn1cc(F)c2cnc(Nc3ccc(N4CCNCC4)cc3)nc21)S(C)(=O)=O [Example 722] |
|  | > 1 | CN(C)C1CCN(c2ccc(Nc3ncc4c(C#N)cn(Cc5cccnc5N(C)S(C)(=O)=O)c4n3)cc2)CC1 [Example 728] |
|  | > 1 | CN(c1ccccc1Cn1cc(C#N)c2cnc(Nc3ccc(N4CCNCC4)cc3)nc21)S(C)(=O)=O [Example 731] |
|  | > 1 | CN1c2c(Cn3ccc4cnc(Nc5ccc(N6CCNCC6)cc5)nc43)cccc2CS1(=O)=O [Example 756] |
|  | > 1 | CC1(C)CN(S(=O)(=O)c2cccc3ccccc23)c2nc(Nc3ccc(N4CCNCC4)cc3)ncc21 [Example 760] |
|  | > 1 | C[C@H]1CN(c2ccc(Nc3ncc4ccn(Cc5cccc6c5N(C)S(=O)(=O)C6)c4n3)cc2)CCN1 [Example 764] |
|  | > 1 | CC1(C)CN(S(=O)(=O)c2cccc3cccnc23)c2nc(Nc3ccc(N4CCN(C5CC5)CC4)cc3)ncc21 [Example 771] |
|  | > 1 | COc1ccc(Cn2ccc3cnc(Nc4ccc(N5CCNCC5)cc4)nc32)c(N(C)S(C)(=O)=O)c1 [Example 772] |
|  | > 1 | CC(c1ccccc1N(C)S(C)(=O)=O)n1ccc2cnc(Nc3ccc(N4CCN[C@H](C)C4)cc3)nc21 (stereo partly shown) [Example 779] |
|  | > 1 | C[C@H]1CN(c2ccc(Nc3cc4c(cn3)cnn4Cc3cccnc3N(C)S(C)(=O)=O)cc2)CCN1 [Example 781] |
|  | > 1 | C[C@H]1CN(c2ccc(Nc3ncc4nnn(Cc5cccnc5N(C)S(C)(=O)=O)c4n3)cc2)CCN1 [Example 790] |
|  | > 1 | CC(c1ccccc1Cn1ccc2cnc(Nc3ccc(N4CCC(N(C)C)CC4)cc3)nc21)S(C)(=O)=O (stereo not shown) [Example 791] |

Source: US20160222014A1, “COMPOUNDS FOR REGULATING FAK AND/OR SRC PATHWAYS” (ASANA BIOSCIENCES, LLC, priority 2013, published 2016)
